Target: PIK3CB;PIK3CG;PIK3CD;PIK3CA (human) (UniProt P48736)
Assay: Enzyme Assay

| IC50 [nM] | Structure (SMILES) |
| --- | --- |
| 20 | COC1CN(CCN2CCC[C@H](n3nc(C(=O)N4CCOCC4)c4c3-c3ccccc3S(=O)(=O)C4)C2)C1 |
| 85 | O=C(c1nn([C@H]2CCCN(Cc3cccnc3)C2)c2c1CS(=O)(=O)c1ccccc1-2)N1CCOCC1 |
| 7960 | CC1CC(C)CC(n2nc(C(=O)N3CCOCC3)c3c2-c2ccccc2S(=O)(=O)C3)C1 (stereo unspecified) |
| 180 | CC1COCCN1Cc1ccc(-n2nc(C(=O)N3CCOCC3)c3c2-c2ccccc2S(=O)(=O)C3)cc1 (stereo unspecified) |
| 274 | O=C(c1ccc(-n2nc(C(=O)N3CCOCC3)c3c2-c2ccccc2S(=O)(=O)C3)cc1)N1CCOCC1 |
| 1840 | Cc1ccc2c(c1)S(=O)(=O)Cc1c(C(=O)N3CCOCC3)nn(-c3ccccc3)c1-2 |
| 9070 | O=C(c1nn(-c2ccccc2)c2c1CS(=O)(=O)c1ccccc1-2)N1CCCOCC1 |
| 72 | O=C(c1nn(C2CCCN(CCN3CC[C@H](F)C3)C2)c2c1CS(=O)(=O)c1ccccc1-2)N1CCOCC1 (stereo partly specified) |
| 61 | O=C(c1nn(C2CCCN(CCC3CCOCC3)C2)c2c1CS(=O)(=O)c1ncccc1-2)N1CCOCC1 (stereo unspecified) |
| 27 | COc1ccc2c(c1)S(=O)(=O)Cc1c(C(=O)N3CCOCC3)nn([C@H]3CCCN(CCC4CCOCC4)C3)c1-2 |
| 2200 | O=C(c1nn([C@@H]2CCCN(CCC3CCOCC3)C2)c2c1CS(=O)(=O)c1ccccc1-2)N1CCOCC1 |
| 3000 | O=C(c1nn([C@@H]2CCCNC2)c2c1CS(=O)(=O)c1ccccc1-2)N1CCOCC1 |
| 83 | O=C(c1nn(C2CCCN(CCN3CCCC(F)(F)C3)C2)c2c1CS(=O)(=O)c1ccccc1-2)N1CCOCC1 (stereo unspecified) |
| 1540 | CC(C)(C)OC(=O)N1CCCC(n2nc(C(=O)N3CCOCC3)c3c2-c2ccccc2S(=O)(=O)C3)C1 (stereo unspecified) |
| 350 | COC1CCN(Cc2cccc(-n3nc(C(=O)N4CCOCC4)c4c3-c3ccccc3S(=O)(=O)C4)c2)C1 (stereo unspecified) |
| 29 | CC1CN(CCN2CCC[C@H](n3nc(C(=O)N4CCOCC4)c4c3-c3ccccc3S(=O)(=O)C4)C2)CCO1 (stereo partly specified) |
| 2690 | Cn1cc(-n2nc(C(=O)N3CCOCC3)c3c2-c2ccsc2S(=O)(=O)C3)ccc1=O |
| 681 | COCCN1CCC(Cn2nc(C(=O)N3CCOCC3)c3c2-c2ccccc2S(=O)(=O)C3)CC1 |
| 1440 | O=C(c1nn([C@H]2CCN(C3CCOCC3)C2)c2c1CS(=O)(=O)c1ccccc1-2)N1CCOCC1 |
| 830 | O=C(c1nn([C@@H]2CCCN(CC3CCOCC3)C2)c2c1CS(=O)(=O)c1ncccc1-2)N1CCOCC1 |
| 14 | O=C(c1nn([C@H]2CCCN(CCN3CCOCC3)C2)c2c1CS(=O)(=O)c1cc(F)ccc1-2)N1CCOCC1 |

| IC50 [nM] | Structure (SMILES) |
| --- | --- |
| 3690 | O=C(c1nn([C@@H]2CCN(CCN3CCC(F)CC3)C2)c2c1CS(=O)(=O)c1ccccc1-2)N1CCOCC1 |
| 19 | COc1ccc2c(c1)S(=O)(=O)Cc1c(C(=O)N3CCOCC3)nn([C@H]3CCCN(CCN4CCC(F)CC4)C3)c1-2 |
| 2590 | CCc1nc(-c2cccc(-n3nc(C(=O)N4CCOCC4)c4c3-c3ccccc3S(=O)(=O)C4)c2)no1 |
| 871 | CC(=O)OCCN1CCC(n2nc(C(=O)N3CCOCC3)c3c2-c2ccccc2S(=O)(=O)C3)C1 (stereo unspecified) |
| 92 | O=C(c1nn([C@H]2CCN(CCC3CCOCC3)C2)c2c1CS(=O)(=O)c1c(F)cccc1-2)N1CCOCC1 |
| 400 | O=C(c1nn(-c2ccc(CN3CCOCC3)cc2)c2c1CS(=O)(=O)c1ncccc1-2)N1CCOCC1 |
| 488 | O=C(c1nn(-c2cccc(Cn3cccn3)c2)c2c1CS(=O)(=O)c1ccccc1-2)N1CCOCC1 |
| 1080 | Cc1ccccc1-c1cccc(-n2nc(C(=O)N3CCOCC3)c3c2-c2ccccc2S(=O)(=O)C3)c1 |
| 3590 | O=C(Nc1cccc(-n2nc(C(=O)N3CCOCC3)c3c2-c2ccccc2S(=O)(=O)C3)c1)N1CCOCC1 |
| 1060 | O=C(c1nn([C@H]2CCCNC2)c2c1CS(=O)(=O)c1ccccc1-2)N1CCOCC1 |
| 52 | O=C(c1nn([C@H]2CCN(C3CCOCC3)C2)c2c1CS(=O)(=O)c1c(F)cccc1-2)N1CCOCC1 |
| 639 | O=C(c1nn(-c2cccc(CN3CCS(=O)(=O)CC3)c2)c2c1CS(=O)(=O)c1ccccc1-2)N1CCOCC1 |
| 904 | O=C(c1nn(-c2ccccc2)c2c1CS(=O)(=O)c1cc(Br)ccc1-2)N1CCOCC1 |
| 257 | O=C(c1nn(C2CCN(CCn3cccn3)C2)c2c1CS(=O)(=O)c1ccccc1-2)N1CCOCC1 (stereo unspecified) |
| 16 | O=C(c1nn(C2CCCN(CCN3CCOCC3)C2)c2c1CS(=O)(=O)c1c(F)cccc1-2)N1CCOCC1 (stereo unspecified) |
| 1130 | O=C(c1nn(-c2cccnc2)c2c1CS(=O)(=O)c1ccccc1-2)N1CCOCC1 |
| 340 | O=C(c1nn([C@H]2CCCN(C3CCOCC3)CC2)c2c1CS(=O)(=O)c1ccccc1-2)N1CCOCC1 |
| 110 | O=C(c1nn(-c2ccc(CN3CCCCC3)cc2)c2c1CS(=O)(=O)c1ccccc1-2)N1CCOCC1 |
| 14500 | COc1ccc(C(=O)Cn2nc(C(=O)N3CCOCC3)c3c2-c2ccccc2S(=O)(=O)C3)cc1 |
| 3030 | O=C(c1ccc2c(c1)-c1c(c(C(=O)N3CCOCC3)nn1-c1ccccc1)CS2(=O)=O)N1CCOCC1 |
| 285 | O=C(c1nn(-c2ccc(CN3CCCC3)cc2)c2c1CS(=O)(=O)c1ccccc1-2)N1CCOCC1 |

| IC50 [nM] | Structure (SMILES) |
| --- | --- |
| 5500 | O=C(c1nn(-c2ccccc2)c2c1NS(=O)(=O)c1ccccc1-2)N1CCOCC1 |
| 478 | COCCN1CCCC(n2nc(C(=O)N3CCOCC3)c3c2-c2ccccc2S(=O)(=O)C3)CC1 (stereo unspecified) |
| 1060 | O=C(c1nn(-c2ccc(CO)cc2)c2c1CS(=O)(=O)c1ccccc1-2)N1CCOCC1 |
| 531 | O=C(c1nn(CC2CCNCC2)c2c1CS(=O)(=O)c1ccccc1-2)N1CCOCC1 |
| 4220 | O=C(c1nn(-c2cccc(-c3nccs3)c2)c2c1CS(=O)(=O)c1ccccc1-2)N1CCOCC1 |
| 1200 | O=C(c1nn(-c2ccc(CN3CCC(F)CC3)nc2)c2c1CS(=O)(=O)c1ccccc1-2)N1CCOCC1 |
| 43 | CN(C)Cc1ccc(-n2nc(C(=O)N3CCOCC3)c3c2-c2ccccc2S(=O)(=O)C3)cc1 |
| 1760 | O=C(c1nn(C2CCN(CCO)CC2)c2c1CS(=O)(=O)c1ccccc1-2)N1CCOCC1 |
| 444 | O=C(c1nn([C@@H]2CCCN(CCn3ccnc3)C2)c2c1CS(=O)(=O)c1ccccc1-2)N1CCOCC1 |
| 371 | O=C(c1cccc(-n2nc(C(=O)N3CCOCC3)c3c2-c2ccccc2S(=O)(=O)C3)c1)N1CCC(O)CC1 |
| 14 | O=C(c1nn([C@H]2CCCN(CCN3CC[C@H](F)C3)C2)c2c1CS(=O)(=O)c1ccccc1-2)N1CCOCC1 |
| 1040 | Cn1nc(C(=O)N2CCOCC2)c2c1-c1cc(Br)ccc1S(=O)(=O)C2 |
| 10700 | O=C(c1nn(Cc2cnccn2)c2c1CS(=O)(=O)c1ccccc1-2)N1CCOCC1 |
| 369 | O=C(c1nn(C2CCN(CCN3CCOCC3)CC2)c2c1CS(=O)(=O)c1ccccc1-2)N1CCOCC1 |
| 55 | O=C(c1nn([C@H]2CCN(CCN3CCC(F)CC3)C2)c2c1CS(=O)(=O)c1ccccc1-2)N1CCOCC1 |
| 16 | O=C(c1nn([C@H]2CCCN(CCC3CCOCC3)C2)c2c1CS(=O)(=O)c1ncccc1-2)N1CCOCC1 |
| 464 | CS(=O)(=O)C1CCN(Cc2cccc(-n3nc(C(=O)N4CCOCC4)c4c3-c3ccccc3S(=O)(=O)C4)c2)C1 (stereo unspecified) |
| 113 | COCCN(CCOC)CCN1CCC[C@H](n2nc(C(=O)N3CCOCC3)c3c2-c2ccccc2S(=O)(=O)C3)C1 |
| 10500 | O=C(c1nn(C2CCCNC2)c2c1CS(=O)(=O)c1cc(OC(F)(F)F)ccc1-2)N1CCOCC1 (stereo unspecified) |
| 376 | N#Cc1cccc(-n2nc(C(=O)N3CCOCC3)c3c2-c2ccccc2S(=O)(=O)C3)c1 |
| 101 | CC1COCCN1CCN1CCC[C@H](n2nc(C(=O)N3CCOCC3)c3c2-c2ccccc2S(=O)(=O)C3)C1 (stereo partly specified) |

| IC50 [nM] | Structure (SMILES) |
| --- | --- |
| 226 | CNCc1ccc(-n2nc(C(=O)N3CCOCC3)c3c2-c2ccccc2S(=O)(=O)C3)cc1 |
| 247 | O=C(c1nn(-c2ccc(CN3CCC(F)CC3)cc2)c2c1CS(=O)(=O)c1ccccc1-2)N1CCOCC1 |
| 30 | O=C(c1nn([C@H]2CCCN(CCN3CCOCC3)C2)c2c1CS(=O)(=O)c1c(Cl)cccc1-2)N1CCOCC1 |
| 2690 | Cc1noc(-c2cccc(-n3nc(C(=O)N4CCOCC4)c4c3-c3ccccc3S(=O)(=O)C4)c2)n1 |
| 3510 | CNc1cccc2c1S(=O)(=O)Cc1c(C(=O)N3CCOCC3)nn(-c3ccccc3)c1-2 |
| 673 | O=C(c1nn(C2CCOCC2)c2c1CS(=O)(=O)c1c(Cl)cccc1-2)N1CCOCC1 |
| 156 | O=C(c1nn(-c2ccc(CNC3CCOC3)cc2)c2c1CS(=O)(=O)c1ccccc1-2)N1CCOCC1 (stereo unspecified) |
| 39 | O=C(CCN1CCC[C@H](n2nc(C(=O)N3CCOCC3)c3c2-c2ccccc2S(=O)(=O)C3)C1)N1CC(F)(F)C1 |
| 200 | O=C(c1nn([C@H]2CCCN(CCF)C2)c2c1CS(=O)(=O)c1ccccc1-2)N1CCOCC1 |
| 1500 | CN(C)CCn1nc(C(=O)N2CCOCC2)c2c1-c1ccccc1S(=O)(=O)C2 |
| 386 | O=C(c1nn(C2CCC(F)(F)CC2)c2c1CS(=O)(=O)c1ccccc1-2)N1CCOCC1 |
| 13900 | CC1COCCN1C(=O)c1nn(-c2ccccc2)c2c1CS(=O)(=O)c1ccccc1-2 (stereo unspecified) |
| 2080 | O=C(c1nn(-c2ccc3nn(Cc4ccccc4)cc3c2)c2c1CS(=O)(=O)c1ccccc1-2)N1CCOCC1 |
| 280 | O=C(c1nn(C2CCN(CCC3CCOCC3)C2)c2c1CS(=O)(=O)c1ccccc1-2)N1CCOCC1 (stereo unspecified) |
| 772 | CN1CCCC(n2nc(C(=O)N3CCOCC3)c3c2-c2ccccc2S(=O)(=O)C3)C1 (stereo unspecified) |
| 420 | O=C(c1nn(C2CCCC(C(=O)N3CCOCC3)C2)c2c1CS(=O)(=O)c1ccccc1-2)N1CCOCC1 (stereo unspecified) |
| 3460 | CN1c2c(C(=O)N3CCOCC3)nn(-c3ccccc3)c2-c2ccccc2S1(=O)=O |
| 6470 | Cc1ccccc1-c1ccc(-n2nc(C(=O)N3CCOCC3)c3c2-c2ccccc2S(=O)(=O)C3)cc1 |
| 711 | O=C(CC1CCCCC1)N1CCC(n2nc(C(=O)N3CCOCC3)c3c2-c2ccccc2S(=O)(=O)C3)C1 (stereo unspecified) |
| 14800 | COc1ccccc1-n1nc(C(=O)N2CCOCC2)c2c1-c1ccccc1S(=O)(=O)C2 |

| Structure (SMILES) | IC50 [nM] |
| --- | --- |
| O=C(c1nn(C2CCCCC2)c2c1CS(=O)(=O)c1cc(Br)ccc1-2)N1CCOCC1 | 691 |
| O=C(c1nn(C2CCN(CCCl)C2)c2c1CS(=O)(=O)c1ccccc1-2)N1CCOCC1 (stereo unspecified) | 305 |
| O=C(c1nn(CC2CCCC2)c2c1CS(=O)(=O)c1ccccc1-2)N1CCOCC1 | 247 |

Source: the Kinase Knowledgebase extract (Sharma et al. 2016)
